Calls of active or inactive are those of the source. The rule behind the calls is not given here.
Assays:
[1] = target: T1, NAD-dependent protein deacylase sirtuin-5, mitochondrial (Homo sapiens, UniProt Q9NXA8); assay: Inhibition of human recombinant SIRT5 (34 to 269 residues) using Ac-Leu-Gly-Ser-Lys (Su)-AMC as fluorogenic substrate incubated for 2 hrs in presence of NAD+ by fluorescence based analysis
Target sequence in this assay (Q9NXA8 whole entry, the tested form may be a part): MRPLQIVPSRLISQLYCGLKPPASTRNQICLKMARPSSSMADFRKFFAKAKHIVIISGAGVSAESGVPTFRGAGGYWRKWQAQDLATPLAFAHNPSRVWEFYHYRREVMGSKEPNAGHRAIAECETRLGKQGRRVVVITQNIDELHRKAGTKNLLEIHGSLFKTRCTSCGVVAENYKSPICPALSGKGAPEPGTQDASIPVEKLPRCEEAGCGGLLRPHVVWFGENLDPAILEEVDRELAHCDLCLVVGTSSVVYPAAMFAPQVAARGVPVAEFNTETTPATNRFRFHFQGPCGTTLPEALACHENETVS

[2] = target: T1, NAD-dependent protein deacylase sirtuin-5, mitochondrial; assay: Inhibition of human recombinant SIRT5 (34 to 269 residues) using Ac-Leu-Gly-Ser-Lys (Su)-AMC as fluorogenic substrate incubated for 2 hrs in presence of NAD+ at 800 uM by fluorescence based analysis
Target sequence in this assay (Q9NXA8 whole entry, the tested form may be a part): as above

[3] = target: T1, NAD-dependent protein deacylase sirtuin-5, mitochondrial; assay: Competitive inhibition of human recombinant SIRT5 (34 to 269 residues) incubated for 2 hrs in presence of 100 uM of fluorogenic substrate Ac-Leu-Gly-Ser-Lys (Su)-AMC by fluorescence based analysis
Target sequence in this assay (Q9NXA8 whole entry, the tested form may be a part): as above

[4] = target: T1, NAD-dependent protein deacylase sirtuin-5, mitochondrial; assay: Competitive inhibition of human recombinant SIRT5 (34 to 269 residues) incubated for 2 hrs in presence of 300 uM of fluorogenic substrate Ac-Leu-Gly-Ser-Lys (Su)-AMC by fluorescence based analysis
Target sequence in this assay (Q9NXA8 whole entry, the tested form may be a part): as above

[5] = target: T1, NAD-dependent protein deacylase sirtuin-5, mitochondrial; assay: Inhibition of human recombinant SIRT5 (34 to 269 residues) using Ac-Leu-Gly-Ser-Lys (Su)-AMC as fluorogenic substrate incubated for 2 hrs in presence of NAD+ at 200 uM by fluorescence based analysis
Target sequence in this assay (Q9NXA8 whole entry, the tested form may be a part): as above

[6] = target: T1, NAD-dependent protein deacylase sirtuin-5, mitochondrial; assay: Inhibition of human recombinant SIRT5 (34 to 269 residues) using Ac-Leu-Gly-Ser-Lys (Su)-AMC as fluorogenic substrate incubated for 2 hrs in presence of NAD+ at 50 uM by fluorescence based analysis
Target sequence in this assay (Q9NXA8 whole entry, the tested form may be a part): as above

[7] = target: T1, NAD-dependent protein deacylase sirtuin-5, mitochondrial; assay: Competitive inhibition of human recombinant SIRT5 (34 to 269 residues) using Ac-Leu-GlySer-Lys (Su)-AMC as substrate at 0 to 50 uM by Lineweaver-Burk plot analysis; conditions: dose 0-50 µM
Target sequence in this assay (Q9NXA8 37-310 limits assumed): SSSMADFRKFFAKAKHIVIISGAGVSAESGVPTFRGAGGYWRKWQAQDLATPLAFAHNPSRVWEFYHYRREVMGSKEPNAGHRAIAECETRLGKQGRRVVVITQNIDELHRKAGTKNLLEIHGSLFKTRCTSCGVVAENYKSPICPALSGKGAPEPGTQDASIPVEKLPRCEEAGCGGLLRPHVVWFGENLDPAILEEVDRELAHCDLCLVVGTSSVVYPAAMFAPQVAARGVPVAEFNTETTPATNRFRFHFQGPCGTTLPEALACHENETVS

[8] = target: T1, NAD-dependent protein deacylase sirtuin-5, mitochondrial; assay: Binding affinity to human recombinant SIRT5 (34 to 269 residues) assessed as thermal stabilization by measuring melting temperature at 50 uM and measured after 10 mins by SYPRO orange dye based thermal shift assay
Target sequence in this assay (Q9NXA8 37-310 limits assumed): as above

[9] = target: T1, NAD-dependent protein deacylase sirtuin-5, mitochondrial; assay: Inhibition of human recombinant SIRT5 (34 to 269 residues) using Ac-Leu-Gly-Ser-Lys (Su)-AMC as fluorogenic substrate incubated for 2 hrs in presence of NAD+ at 100 uM by fluorescence based analysis
[10] = target: T1, NAD-dependent protein deacylase sirtuin-5, mitochondrial; assay: Competitive inhibition of human recombinant SIRT5 (34 to 269 residues) incubated for 2 hrs in presence of 11 uM of fluorogenic substrate Ac-Leu-Gly-Ser-Lys (Su)-AMC by fluorescence based analysis
[11] = target: T1, NAD-dependent protein deacylase sirtuin-5, mitochondrial; assay: Binding affinity to human recombinant SIRT5 (34 to 269 residues) assessed as thermal stabilization by measuring change in melting temperature at 100 uM and measured after 10 mins by SYPRO orange dye based thermal shift assay
Target sequence in this assay (Q9NXA8 37-310 limits assumed): as above

[12] = target: T1, NAD-dependent protein deacylase sirtuin-5, mitochondrial; assay: Inhibition of human recombinant SIRT5 (34 to 269 residues) using Ac-Leu-Gly-Ser-Lys (Su)-AMC as fluorogenic substrate incubated for 2 hrs in presence of NAD+ at 400 uM by fluorescence based analysis
[13] = target: T1, NAD-dependent protein deacylase sirtuin-5, mitochondrial; assay: Binding affinity to human recombinant SIRT5 (34 to 269 residues) assessed as thermal stabilization by measuring melting temperature at 100 uM and measured after 10 mins by SYPRO orange dye based thermal shift assay
Target sequence in this assay (Q9NXA8 37-310 limits assumed): as above

[14] = target: T2, NAD-dependent protein deacetylase sirtuin-1 (Homo sapiens, UniProt Q96EB6); assay: Inhibition of recombinant SIRT1 (unknown origin) using Ac-Arg-Leu-Ile-Lys-(Ac) AMC as substrate in presence of NAD+
T2 sequence (Q96EB6 whole entry): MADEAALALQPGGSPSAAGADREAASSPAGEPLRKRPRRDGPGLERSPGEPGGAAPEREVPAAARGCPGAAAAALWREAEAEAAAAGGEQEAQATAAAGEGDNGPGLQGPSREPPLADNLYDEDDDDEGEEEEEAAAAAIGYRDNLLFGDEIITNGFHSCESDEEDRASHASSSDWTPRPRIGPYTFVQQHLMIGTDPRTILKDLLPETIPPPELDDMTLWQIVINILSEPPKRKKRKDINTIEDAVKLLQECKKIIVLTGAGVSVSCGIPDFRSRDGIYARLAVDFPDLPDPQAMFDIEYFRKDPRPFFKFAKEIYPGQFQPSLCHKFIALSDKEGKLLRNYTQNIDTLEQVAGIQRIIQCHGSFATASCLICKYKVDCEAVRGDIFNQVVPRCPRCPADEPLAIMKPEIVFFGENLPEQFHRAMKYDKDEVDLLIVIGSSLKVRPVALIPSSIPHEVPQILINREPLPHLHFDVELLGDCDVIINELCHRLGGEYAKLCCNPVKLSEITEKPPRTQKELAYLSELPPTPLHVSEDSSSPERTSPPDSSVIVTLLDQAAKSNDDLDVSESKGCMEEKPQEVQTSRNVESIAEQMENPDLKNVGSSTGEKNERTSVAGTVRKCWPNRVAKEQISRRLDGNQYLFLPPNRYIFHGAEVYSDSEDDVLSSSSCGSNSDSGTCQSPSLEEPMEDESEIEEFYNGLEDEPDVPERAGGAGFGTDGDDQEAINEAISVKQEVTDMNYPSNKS

[15] = target: T1, NAD-dependent protein deacylase sirtuin-5, mitochondrial; assay: Binding affinity to human recombinant SIRT5 (34 to 269 residues) assessed as thermal stabilization by measuring change in melting temperature at 50 uM and measured after 10 mins by SYPRO orange dye based thermal shift assay
Target sequence in this assay (Q9NXA8 37-310 limits assumed): as the sequence (Q9NXA8 37-310 limits assumed) above

[16] = target: T3, NAD-dependent protein deacetylase sirtuin-2 (Homo sapiens, UniProt Q8IXJ6); assay: Inhibition of human recombinant SIRT2 using Ac-Glu-Thr-Asp-Lys (Dec)-AM as substrate in presence of NAD+
T3 sequence (Q8IXJ6 whole entry): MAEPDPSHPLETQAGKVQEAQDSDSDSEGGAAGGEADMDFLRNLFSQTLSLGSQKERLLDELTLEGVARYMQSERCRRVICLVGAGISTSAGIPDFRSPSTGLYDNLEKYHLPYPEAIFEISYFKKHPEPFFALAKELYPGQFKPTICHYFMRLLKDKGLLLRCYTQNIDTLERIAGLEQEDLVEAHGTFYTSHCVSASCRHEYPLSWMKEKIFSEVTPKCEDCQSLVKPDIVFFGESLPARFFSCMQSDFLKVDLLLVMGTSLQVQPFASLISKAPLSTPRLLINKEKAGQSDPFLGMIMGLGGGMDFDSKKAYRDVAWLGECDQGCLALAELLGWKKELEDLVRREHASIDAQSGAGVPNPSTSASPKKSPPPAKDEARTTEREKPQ

[17] = target: T1, NAD-dependent protein deacylase sirtuin-5, mitochondrial; assay: Competitive inhibition of human recombinant SIRT5 (34 to 269 residues) incubated for 2 hrs in presence of 33 uM of fluorogenic substrate Ac-Leu-Gly-Ser-Lys (Su)-AMC by fluorescence based analysis

For `O=C(O)CCNC(=S)NCCCNc1nc(NCc2ccccc2)nc(Nc2ccccc2Cl)n1`, the IC50 [1] was 14.5 µM.

Molecule `COc1cc(Nc2nc(NCCCNC(=S)NCCC(=O)O)nc(Nc3ccccc3Cl)n2)cc(OC)c1` has an IC50 [2] of 4.66 µM, an IC50 [3] of 29.2 µM and an IC50 [4] of 42.5 µM. For the same molecule, the IC50 [5] was 3.27 µM, the IC50 [6] was 4.77 µM and the inhibition [7] was “Active”. It also gave a Tm [8] of 69.4 °C, an IC50 [9] of 4.83 µM and an IC50 [10] of 7.93 µM. For the same molecule, the IC50 [1] was 4.07 µM, the ΔTm [11] was 3.29 °C and the IC50 [12] was 3.48 µM. It also gave a Tm [13] of 69.7 °C, an IC50 [14] of 95.9 µM and a ΔTm [15] of 2.91 °C. It also gave an IC50 [16] of 111 µM and an IC50 [17] of 14.3 µM.

`Cc1c(Br)cccc1Nc1nc(NCCCNC(=S)NCCC(=O)O)nc(Nc2ccccc2Cl)n1` showed an IC50 [1] of 49.9 µM.

For `O=C(O)CCNC(=S)NCCCNc1nc(Nc2ccccc2Cl)nc(NC2CCC2)n1`, the IC50 [1] was 25.1 µM.

Work on `CC(C)(C)OC(=O)[C@H](Nc1nc(NCCCNC(=S)NCCC(=O)O)nc(Nc2ccccc2Cl)n1)c1ccccc1` yielded an IC50 [1] of 21.5 µM.

Molecule `CC(CCc1ccccc1)Nc1nc(NCCCNC(=S)NCCC(=O)O)nc(Nc2ccccc2Cl)n1` (stereo unspecified) has an IC50 [1] of 27 µM.

In the case of `O=C(O)CCNC(=S)NCCCNc1nc(Nc2cc(F)cc(F)c2)nc(Nc2ccccc2Cl)n1`, the IC50 [1] is reported as 21.4 µM.

In the case of `Cc1cccc(Nc2nc(NCCCNC(=S)NCCC(=O)O)nc(Nc3ccccc3Cl)n2)c1Br`, the IC50 [1] is reported as 6.16 µM.

Work on `O=C(O)CCNC(=S)NCCCNc1nc(Nc2ccccc2Cl)nc(NC2CCCC2)n1` yielded an IC50 [1] of 19.4 µM.

`CC[C@H](Nc1nc(NCCCNC(=S)NCCC(=O)O)nc(Nc2ccccc2Cl)n1)c1ccccc1` showed an IC50 [1] of 9.43 µM.

`O=C(O)CCNC(=S)NCCCNc1nc(NCCc2ccccc2)nc(Nc2ccccc2Cl)n1` was tested, and the IC50 [1] was 6.97 µM.

`O=C(O)CCNC(=S)NCCCNc1nc(Nc2ccccc2Cl)nc(NC2CC2)n1` showed an IC50 [1] of 18.2 µM.

`O=C(O)CCNC(=S)NCCCNc1nc(Nc2ccccc2)nc(Nc2ccccc2Cl)n1` gave an IC50 [2] of 6.74 µM, an IC50 [3] of 14.2 µM and an IC50 [4] of 29.6 µM. It also gave an IC50 [5] of 4.68 µM, an IC50 [6] of 2.27 µM and an IC50 [9] of 3.35 µM. For the same molecule, the IC50 [10] was 3.21 µM, the IC50 [1] was 5.38 µM and the IC50 [12] was 4.05 µM. The IC50 [14] was 21.9 µM, the IC50 [16] was 136 µM and the IC50 [17] was 5.88 µM.

`O=C(O)CCNC(=S)NCCCNc1nc(Nc2ccccc2Cl)nc(N2CCCC2c2ccccc2)n1` (stereo unspecified) showed an IC50 [1] of 13 µM.
